Data published in US10071086B2, “1H-pyrazolo[3,4-b]pyridines and therapeutic uses thereof” (Samumed, LLC, priority 2012, dated 2018).

System: Wnt pathway
Assay: Wnt activity reporter assay (SP5 promoter-luciferase in SW480 cells)
Assay type: cell-based
Conditions: Homo sapiens, SP5 promoter firefly luciferase reporter, read-out: Wnt inhibition
In short: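 SW480 cells stably carrying an SP5 promoter (eight TCF/LEF sites)-firefly luciferase reporter were seeded at ~10,000 per well and given half-log compound dilutions from a 10 µM top concentration.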

| SMILES | IC50 [nM] |
| --- | --- |
| CCCC(=O)Nc1cncc(-c2cnc3[nH]nc(-c4nc5c(-c6ccccc6F)cccc5[nH]4)c3c2)c1 [Compound 602, N-(5-(3-(4-(2-Fluorophenyl)-1H-benzo[d]imidazol-2-yl)-1H-pyrazolo[3,4-b]pyridin-5-yl)pyridin-3-yl)butyramide] | 18 |
| O=C(Nc1cncc(-c2cnc3[nH]nc(-c4nc5c(-c6ccccc6F)cccc5[nH]4)c3c2)c1)C1CCC1 [Compound 605, N-(5-(3-(4-(2-Fluorophenyl)-1H-benzo[d]imidazol-2-yl)-1H-pyrazolo[3,4-b]pyridin-5-yl)pyridin-3-yl)cyclobutanecarboxamide] | 18 |
| CN(C)c1cncc(-c2cnc3[nH]nc(-c4nc5c(-c6cccnc6)cccc5[nH]4)c3c2)c1 [Compound 616, N,N-Dimethyl-5-(3-(4-(pyridin-3-yl)-1H-benzo[d]imidazol-2-yl)-1H-pyrazolo[3,4-b]pyridin-5-yl)pyridin-3-amine] | 1410 |
| CN(C)Cc1cncc(-c2cnc3[nH]nc(-c4nc5c(-c6cccnc6)cccc5[nH]4)c3c2)c1 [Compound 621, N,N-Dimethyl-1-(5-(3-(4-(pyridin-3-yl)-1H-benzo[d]imidazol-2-yl)-1H-pyrazolo[3,4-b]pyridin-5-yl)pyridin-3-yl)methanamine] | 36 |
| Nc1cncc(-c2cnc3[nH]nc(-c4nc5c(-c6ccncc6)cccc5[nH]4)c3c2)c1 [Compound 635, 5-(3-(4-(Pyridin-4-yl)-1H-benzo[d]imidazol-2-yl)-1H-pyrazolo[3,4-b]pyridin-5-yl)pyridin-3-amine] | 34 |
| Cc1ccncc1-c1cnc2[nH]nc(-c3nc4c(-c5ccncc5)cccc4[nH]3)c2c1 [Compound 637, 5-(4-Methylpyridin-3-yl)-3-(4-(pyridin-4-yl)-1H-benzo[d]imidazol-2-yl)-1H-pyrazolo[3,4-b]pyridine] | 110 |
| CC(C)Nc1cncc(-c2cnc3[nH]nc(-c4nc5c(-c6ccncc6)cccc5[nH]4)c3c2)c1 [Compound 643, N-Isopropyl-5-(3-(4-(pyridin-4-yl)-1H-benzo[d]imidazol-2-yl)-1H-pyrazolo[3,4-b]pyridin-5-yl)pyridin-3-amine] | 30 |
| CC(C)(C)CC(=O)Nc1cncc(-c2cnc3[nH]nc(-c4nc5c(-c6ccncc6)cccc5[nH]4)c3c2)c1 [Compound 647, 3,3-Dimethyl-N-(5-(3-(4-(pyridin-4-yl)-1H-benzo[d]imidazol-2-yl)-1H-pyrazolo[3,4-b]pyridin-5-yl)pyridin-3-yl)butanamide] | 1520 |
| c1ccc(CNCc2cncc(-c3cnc4[nH]nc(-c5nc6c(-c7ccncc7)cccc6[nH]5)c4c3)c2)cc1 [Compound 654, N-Benzyl-1-(5-(3-(4-(pyridin-4-yl)-1H-benzo[d]imidazol-2-yl)-1H-pyrazolo[3,4-b]pyridin-5-yl)pyridin-3-yl)methanamine] | 1500 |
| FC1(F)CCN(Cc2cncc(-c3cnc4[nH]nc(-c5nc6c(-c7ccccn7)cccc6[nH]5)c4c3)c2)C1 [Compound 680, 5-(5-((3,3-Difluoropyrrolidin-1-yl)methyl)pyridin-3-yl)-3-(4-(pyridin-2-yl)-1H-benzo[d]imidazol-2-yl)-1H-pyrazolo[3,4-b]pyridine] | 170 |
| O=C(Nc1cncc(-c2cnc3[nH]nc(-c4nc5c(N6CCCCC6)cccc5[nH]4)c3c2)c1)c1ccccc1 [Compound 691, N-(5-(3-(4-(Piperidin-1-yl)-1H-benzo[d]imidazol-2-yl)-1H-pyrazolo[3,4-b]pyridin-5-yl)pyridin-3-yl)benzamide] | 187 |
| CCCCC(=O)Nc1cncc(-c2cnc3[nH]nc(-c4nc5c(N6CCCCC6)cccc5[nH]4)c3c2)c1 [Compound 698, N-(5-(3-(4-(Piperidin-1-yl)-1H-benzo[d]imidazol-2-yl)-1H-pyrazolo[3,4-b]pyridin-5-yl)pyridin-3-yl)pentanamide] | 300 |
| O=C(Nc1cncc(-c2cnc3[nH]nc(-c4nc5c(N6CCCCC6)cccc5[nH]4)c3c2)c1)C1CCCC1 [Compound 701, N-(5-(3-(4-(Piperidin-1-yl)-1H-benzo[d]imidazol-2-yl)-1H-pyrazolo[3,4-b]pyridin-5-yl)pyridin-3-yl)cyclopentanecarboxamide] | 625 |
| c1cc(N2CCCCC2)c2nc(-c3n[nH]c4ncc(-c5cncc(CNCC6CCCC6)c5)cc34)[nH]c2c1 [Compound 704, 1-Cyclopentyl-N-((5-(3-(4-(piperidin-1-yl)-1H-benzo[d]imidazol-2-yl)-1H-pyrazolo[3,4-b]pyridin-5-yl)pyridin-3-yl)methyl)methanamine] | 810 |
| Cc1cn(-c2cccc3[nH]c(-c4n[nH]c5ncc(-c6cncc(CN(C)C)c6)cc45)nc23)cn1 [Compound 719, N,N-Dimethyl-1-(5-(3-(4-(4-methyl-1H-imidazol-1-yl)-1H-benzo[d]imidazol-2-yl)-1H-pyrazolo[3,4-b]pyridin-5-yl)pyridin-3-yl)methanamine] | 200 |
| Cc1cn(-c2cccc3[nH]c(-c4n[nH]c5ncc(-c6cncc(NC(=O)C7CCCCC7)c6)cc45)nc23)cn1 [Compound 728, N-(5-(3-(4-(4-Methyl-1H-imidazol-1-yl)-1H-benzo[d]imidazol-2-yl)-1H-pyrazolo[3,4-b]pyridin-5-yl)pyridin-3-yl)cyclohexanecarboxamide] | 39 |

| SMILES | IC50 [nM] |
| --- | --- |
| CCNCc1cncc(-c2cnc3[nH]nc(-c4nc5c(N6CCN(C)CC6)cccc5[nH]4)c3c2)c1 [Compound 738, N-((5-(3-(4-(4-Methylpiperazin-1-yl)-1H-benzo[d]imidazol-2-yl)-1H-pyrazolo[3,4-b]pyridin-5-yl)pyridin-3-yl)methyl)ethanamine] | 550 |
| CN1CCN(c2cccc3[nH]c(-c4n[nH]c5ncc(-c6cncc(NC(=O)C7CCC7)c6)cc45)nc23)CC1 [Compound 752, N-(5-(3-(4-(4-Methylpiperazin-1-yl)-1H-benzo[d]imidazol-2-yl)-1H-pyrazolo[3,4-b]pyridin-5-yl)pyridin-3-yl)cyclobutanecarboxamide] | 226 |
| CN1CCN(c2cccc3[nH]c(-c4n[nH]c5ncc(-c6cncc(CN7CCC(F)(F)C7)c6)cc45)nc23)CC1 [Compound 758, 5-(5-((3,3-Difluoropyrrolidin-1-yl)methyl)pyridin-3-yl)-3-(4-(4-methylpiperazin-1-yl)-1H-benzo[d]imidazol-2-yl)-1H-pyrazolo[3,4-b]pyridine] | 48 |
| Nc1cncc(-c2cnc3[nH]nc(-c4nc5ccccc5[nH]4)c3c2)c1 [Compound 761, 5-(3-(1H-Benzo[d]imidazol-2-yl)-1H-pyrazolo[3,4-b]pyridin-5-yl)pyridin-3-amine] | 320 |
| CN(C)c1cncc(-c2cnc3[nH]nc(-c4nc5ccccc5[nH]4)c3c2)c1 [Compound 765, 5-(3-(1H-Benzo[d]imidazol-2-yl)-1H-pyrazolo[3,4-b]pyridin-5-yl)-N,N-dimethylpyridin-3-amine] | 27 |
| CC(C)(C)CC(=O)Nc1cncc(-c2cnc3[nH]nc(-c4nc5ccccc5[nH]4)c3c2)c1 [Compound 774, N-(5-(3-(1H-Benzo[d]imidazol-2-yl)-1H-pyrazolo[3,4-b]pyridin-5-yl)pyridin-3-yl)-3,3-dimethylbutanamide] | 200 |
| c1ccc(CNCc2cncc(-c3cnc4[nH]nc(-c5nc6ccccc6[nH]5)c4c3)c2)cc1 [Compound 781, 1-(5-(3-(1H-Benzo[d]imidazol-2-yl)-1H-pyrazolo[3,4-b]pyridin-5-yl)pyridin-3-yl)-N-benzylmethanamine] | 1440 |
| CCC(=O)Nc1cncc(-c2cnc3[nH]nc(-c4nc5c(-c6ccsc6)cccc5[nH]4)c3c2)c1 [Compound 785, N-(5-(3-(4-(Thiophen-3-yl)-1H-benzo[d]imidazol-2-yl)-1H-pyrazolo[3,4-b]pyridin-5-yl)pyridin-3-yl)propionamide] | 10 |
| CC(C)C(=O)Nc1cncc(-c2cnc3[nH]nc(-c4nc5c(-c6ccsc6)cccc5[nH]4)c3c2)c1 [Compound 793, N-(5-(3-(4-(Thiophen-3-yl)-1H-benzo[d]imidazol-2-yl)-1H-pyrazolo[3,4-b]pyridin-5-yl)pyridin-3-yl)isobutyramide] | 16 |
| CN(C)Cc1cncc(-c2cnc3[nH]nc(-c4nc5c(-c6ccsc6)cccc5[nH]4)c3c2)c1 [Compound 797, N,N-Dimethyl-1-(5-(3-(4-(thiophen-3-yl)-1H-benzo[d]imidazol-2-yl)-1H-pyrazolo[3,4-b]pyridin-5-yl)pyridin-3-yl)methanamine] | 32 |
| c1cc(-c2ccsc2)c2nc(-c3n[nH]c4ncc(-c5cncc(CN6CCCCC6)c5)cc34)[nH]c2c1 [Compound 799, 5-(5-(Piperidin-1-ylmethyl)pyridin-3-yl)-3-(4-(thiophen-3-yl)-1H-benzo[d]imidazol-2-yl)-1H-pyrazolo[3,4-b]pyridine] | 82 |
| O=C(Nc1cncc(-c2cnc3[nH]nc(-c4nc5c(-c6ccsc6)cccc5[nH]4)c3c2)c1)C1CC1 [Compound 803, N-(5-(3-(4-(Thiophen-3-yl)-1H-benzo[d]imidazol-2-yl)-1H-pyrazolo[3,4-b]pyridin-5-yl)pyridin-3-yl)cyclopropanecarboxamide] | 17 |
| CC(C)(C)C(=O)Nc1cncc(-c2cnc3[nH]nc(-c4nc5c(-c6ccoc6)cccc5[nH]4)c3c2)c1 [Compound 818, N-(5-(3-(4-(Furan-3-yl)-1H-benzo[d]imidazol-2-yl)-1H-pyrazolo[3,4-b]pyridin-5-yl)pyridin-3-yl)pivalamide] | 50 |
| CCCC(=O)Nc1cncc(-c2cnc3[nH]nc(-c4nc5c(-c6ccoc6)cccc5[nH]4)c3c2)c1 [Compound 827, N-(5-(3-(4-(Furan-3-yl)-1H-benzo[d]imidazol-2-yl)-1H-pyrazolo[3,4-b]pyridin-5-yl)pyridin-3-yl)butyramide] | 63 |
| c1cncc(-c2cnc3[nH]nc(-c4nc5c(-c6cccs6)cccc5[nH]4)c3c2)c1 [Compound 888, 5-(Pyridin-3-yl)-3-(4-(thiophen-2-yl)-1H-benzo[d]imidazol-2-yl)-1H-pyrazolo[3,4-b]pyridine] | 12 |
| c1csc(-c2cccc3[nH]c(-c4n[nH]c5ncc(-c6cncc(CN7CCCC7)c6)cc45)nc23)c1 [Compound 898, 5-(5-(Pyrrolidin-1-ylmethyl)pyridin-3-yl)-3-(4-(thiophen-2-yl)-1H-benzo[d]imidazol-2-yl)-1H-pyrazolo[3,4-b]pyridine] | 120 |
